From ChEMBL document CHEMBL5625174, “Are inhibitors of histone deacetylase 8 (HDAC8) effective in hematological cancers especially acute myeloid leukemia (AML) and acute lymphoblastic leukemia (ALL)?” (Eur J Med Chem, 2023) come the findings set out here.

Assay [1] has as its system Jurkat E6.1. Description: Cytotoxicity against human Jurkat E6.1 cells assessed as reduction in cell viability incubated for 72 hrs by MTT assay. It is filed as functional, cell-based. Particulars: Jurkat E6.1, 72 h. On the technique in general: Tetrazolium dyes change colour on reduction, which living cells bring about.
The target in assay [2] is T1, Histone deacetylase 8 (Homo sapiens, UniProt Q9BY41).
T1 sequence (Q9BY41 whole entry): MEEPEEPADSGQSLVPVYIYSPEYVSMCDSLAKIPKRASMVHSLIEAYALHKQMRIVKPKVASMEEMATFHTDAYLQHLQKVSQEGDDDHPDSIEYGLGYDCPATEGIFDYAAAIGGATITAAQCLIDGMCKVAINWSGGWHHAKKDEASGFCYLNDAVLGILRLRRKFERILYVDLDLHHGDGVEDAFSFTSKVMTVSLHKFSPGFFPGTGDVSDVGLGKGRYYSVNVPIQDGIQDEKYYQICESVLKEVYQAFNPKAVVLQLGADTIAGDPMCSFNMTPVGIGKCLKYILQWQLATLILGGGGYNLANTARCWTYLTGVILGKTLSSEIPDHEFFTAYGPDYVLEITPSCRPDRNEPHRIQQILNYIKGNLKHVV
Description: Inhibition of human recombinant HDAC8 using fluorogenic HDAC substrate class 2A preincubated for 30 mins followed by substrate addition and measured after 15 mins by fluorogenic assay.

The next assay deals with Histone deacetylase. Description: Inhibition of HDAC (unknown origin) using Fluoro-Substrate Peptide as substrate by fluorescence assay. It is filed as protein assay, Homo sapiens.
The target in assay [3] is T1, Histone deacetylase 8. Description: Inhibition of HDAC8 (unknown origin) by fluorescence based assay.
The subject of a further assay is U-937. Description: Cytotoxicity against human U-937 cells assessed as reduction in cell viability. Format: functional, cell-based.
The test system of the next assay is MOLT-4. Description: Cytotoxicity against human MOLT-4 cells assessed as reduction in cell viability. It is filed as functional, cell-based.
The test system of assay [4] is Jurkat E6.1. Description: Cytotoxicity against human Jurkat E6.1 cells assessed as reduction in cell viability. Format: functional, cell-based.
Assay [5] is described as follows: Inhibition of HDAC6 (unknown origin) assessed as release of fluorogenic AMC pre-incubated for 15 mins followed by addition of trypsin and substrate measured after 60 mins microplate reader analysis. Details: species or system Homo sapiens.
The target in the next assay is Histone deacetylase 1 (Homo sapiens, UniProt Q13547). Description: Inhibition of HDAC1 (unknown origin) using Ac-Leu-Gly-Lys(Ac)-AMC as substrate pre-incubated for 30 mins followed by substrate addition and measured after 30 mins by fluorescence based analysis.
Histone deacetylase 1, sequence (Q13547 whole entry): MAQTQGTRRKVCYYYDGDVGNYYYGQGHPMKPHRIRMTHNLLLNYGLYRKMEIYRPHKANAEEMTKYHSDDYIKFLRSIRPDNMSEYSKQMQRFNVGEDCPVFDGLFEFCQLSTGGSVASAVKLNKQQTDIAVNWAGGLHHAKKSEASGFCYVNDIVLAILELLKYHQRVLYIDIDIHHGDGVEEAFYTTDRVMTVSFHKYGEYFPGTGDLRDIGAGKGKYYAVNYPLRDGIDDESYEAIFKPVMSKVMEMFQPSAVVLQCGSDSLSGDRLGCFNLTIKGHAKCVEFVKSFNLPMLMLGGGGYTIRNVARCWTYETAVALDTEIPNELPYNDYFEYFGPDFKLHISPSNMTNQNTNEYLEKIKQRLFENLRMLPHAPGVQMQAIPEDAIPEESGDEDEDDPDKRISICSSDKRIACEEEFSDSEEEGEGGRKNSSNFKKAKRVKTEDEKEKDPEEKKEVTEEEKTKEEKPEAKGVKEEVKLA
Assay [6] addresses T2, Histone deacetylase 8 (Homo sapiens) (UniProt Q9BY41).
T2 sequence (whole entry): T1 sequence (Q9BY41 whole entry)
Description: Inhibition of His-tagged recombinant HDAC8 (unknown origin) at 10 uM using Boc-Lys(triflouroacetyl)-AMC as fluorogenic substrate pre-incubated for 30 mins followed by substrate addition and measured after 30 mins by fluorescence based analysis relative to control. The settings on record: time 60.0 min.

The subject of another assay is Jurkat. Description: cells. It is filed as functional. The settings on record: Homo sapiens.
For assay [7], the target named is T1, Histone deacetylase 8. Description: Inhibition of human recombinant HDAC8 using AMC-K(Ac)GL as substrate by fluorescence based assay.
Another assay concerns the target Histone deacetylase 2 (Homo sapiens, UniProt Q92769). Description: Inhibition of HDAC2 (unknown origin) assessed as release of fluorogenic AMC pre-incubated for 15 mins followed by addition of trypsin and substrate measured after 60 mins microplate reader analysis.
A further assay addresses Histone deacetylase 4 (Homo sapiens, UniProt P56524). Description: Inhibition of HDAC4 (unknown origin) assessed as release of fluorogenic AMC pre-incubated for 15 mins followed by addition of trypsin and substrate measured after 60 mins microplate reader analysis.

Square brackets hold non-standard residues; d marks the D form. Peptide text beside a SMILES is read from it. * marks the point of attachment. Asu = N[C@@H](CCCCCC(=O)O)C(=O)O; β3hL = CC(C)C[C@H](N)CC(=O)O; NHOH = ON*

Histone deacetylase 2, sequence (Q92769 whole entry): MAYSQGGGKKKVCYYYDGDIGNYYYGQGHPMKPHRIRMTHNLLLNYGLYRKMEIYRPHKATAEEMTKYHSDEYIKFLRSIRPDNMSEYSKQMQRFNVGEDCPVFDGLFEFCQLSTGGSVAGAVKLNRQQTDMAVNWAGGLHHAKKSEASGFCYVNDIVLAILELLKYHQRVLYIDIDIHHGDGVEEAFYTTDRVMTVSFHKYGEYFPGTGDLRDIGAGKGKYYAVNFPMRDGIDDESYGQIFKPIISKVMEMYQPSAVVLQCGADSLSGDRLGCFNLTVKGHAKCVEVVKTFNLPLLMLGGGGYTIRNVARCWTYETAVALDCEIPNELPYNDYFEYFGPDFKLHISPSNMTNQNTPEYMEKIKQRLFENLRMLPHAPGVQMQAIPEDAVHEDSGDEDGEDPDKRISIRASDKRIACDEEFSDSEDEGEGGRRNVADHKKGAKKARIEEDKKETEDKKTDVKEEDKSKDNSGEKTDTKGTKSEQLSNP
Histone deacetylase 4, sequence (P56524 whole entry): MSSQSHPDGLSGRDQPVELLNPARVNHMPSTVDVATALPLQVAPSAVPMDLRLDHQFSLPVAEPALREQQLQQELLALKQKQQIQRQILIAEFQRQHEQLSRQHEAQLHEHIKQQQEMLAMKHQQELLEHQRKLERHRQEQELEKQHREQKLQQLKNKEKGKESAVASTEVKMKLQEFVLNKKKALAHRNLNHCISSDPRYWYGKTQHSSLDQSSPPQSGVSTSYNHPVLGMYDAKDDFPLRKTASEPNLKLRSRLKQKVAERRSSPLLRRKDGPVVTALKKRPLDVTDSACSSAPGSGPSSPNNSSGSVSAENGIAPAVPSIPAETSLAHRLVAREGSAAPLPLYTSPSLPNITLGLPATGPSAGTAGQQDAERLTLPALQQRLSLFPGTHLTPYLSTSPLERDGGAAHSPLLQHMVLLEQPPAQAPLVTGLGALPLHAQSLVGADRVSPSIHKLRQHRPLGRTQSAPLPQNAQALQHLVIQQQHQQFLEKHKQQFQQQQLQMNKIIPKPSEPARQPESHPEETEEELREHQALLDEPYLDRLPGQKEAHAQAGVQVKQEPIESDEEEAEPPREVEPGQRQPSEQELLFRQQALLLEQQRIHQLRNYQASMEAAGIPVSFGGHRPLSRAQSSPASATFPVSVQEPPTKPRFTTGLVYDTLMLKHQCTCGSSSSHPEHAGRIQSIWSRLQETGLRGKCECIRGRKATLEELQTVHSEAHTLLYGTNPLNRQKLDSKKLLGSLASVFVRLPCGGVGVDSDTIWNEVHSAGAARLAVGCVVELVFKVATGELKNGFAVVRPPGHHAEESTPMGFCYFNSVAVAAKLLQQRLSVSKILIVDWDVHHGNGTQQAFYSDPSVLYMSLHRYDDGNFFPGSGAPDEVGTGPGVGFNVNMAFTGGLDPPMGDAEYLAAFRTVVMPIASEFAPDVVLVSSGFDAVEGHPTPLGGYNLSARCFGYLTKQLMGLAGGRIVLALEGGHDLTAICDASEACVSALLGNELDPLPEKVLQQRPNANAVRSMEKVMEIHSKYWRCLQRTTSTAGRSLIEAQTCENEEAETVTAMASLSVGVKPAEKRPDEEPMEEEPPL

Take `CCCCNC(=O)[C@H](CCC(=O)NO)NC(=O)Cc1ccc(Cl)cc1`: the IC50 (usually the concentration that gives 50% inhibition) in the assay on Jurkat E6.1 [1] is less than 50 µM.

Turning to `O=C1CN[C@@H](Cc2cc3ccccc3[nH]2)C(=O)N1`, at Histone deacetylase 8 [2], the IC50 is 0.0108 µM.

Consider `O=C(O)CC[C@H](NC(=O)Cc1ccc(-c2ccccc2)cc1)C(=O)NCc1ccccc1`, for which the IC50 at Histone deacetylase was more than 10 µM; at Histone deacetylase 8 [3], not above 10 µM; in the assay with U-937, less than 35 µM; in the assay with MOLT-4 it was less than 35 µM; with Jurkat E6.1 [4] it was less than 35 µM.

As to `O=C(NO)c1ccc(-c2cccc3ccccc23)cc1`, the IC50 in assay [5] was 55 µM; at Histone deacetylase 1, more than 100 µM.

Turning to `CC(C)C[C@H](NC(=O)[C@@H](O)[C@H](N)Cc1ccccc1)C(=O)NCCOCCOCC(=O)Nc1cccc(C(=O)NO)c1`, the inhibition (commonly the drop in the measured response relative to a control, in per cent) in assay [6] amounted to 71%.

Turning to `CCCCCNC(=O)[C@H](CCC(=O)NO)NC(=O)Cc1ccc(Br)cc1`, the IC50 with Jurkat E6.1 [1] was more than 50 µM.

For the molecule `CC(C)CNC(=O)[C@H](CCC(=O)NO)NC(=O)Cc1ccccc1F`, the IC50 in the assay with Jurkat E6.1 [1] was more than 50 µM.

For `O=C(CC[C@H](NC(=O)Cc1ccc(Cl)cc1Cl)C(=O)Nc1ccccc1)NO`, in the assay with Jurkat E6.1 [1], the IC50 was less than 50 µM.

`CSCC[C@H]1NCC(=O)NC1=O`: at Histone deacetylase 8 [2], the 50% inhibitory concentration (IC50) is 0.0797 µM.

As for `CCCCNC(=O)[C@H](CCC(=O)NO)NC(=O)Cc1ccc(Cl)cc1Cl`, in the assay on Jurkat E6.1 [1], the IC50 is less than 50 µM.

Turning to `CSCC[C@@H]1NCC(=O)NC1=O`, the IC50 at Histone deacetylase 8 [2] worked out at 0.0884 µM.

For the molecule `CCCCNC(=O)[C@H](CCC(=O)NO)NC(=O)Cc1ccc([N+](=O)[O-])cc1`, in the assay on Jurkat E6.1 [1], the IC50 is less than 50 µM.

For `O=C(NO)c1cccc(-c2csc(CSc3ccccc3)n2)c1`, growth in the assay with Jurkat was halved (GI50) at 2 µM.

Turning to `COc1ccc(CNC(=O)[C@H](CCC(=O)O)NC(=O)Cc2ccc(Br)cc2)cc1`, the IC50 was more than 10 µM at Histone deacetylase; not above 10 µM on Histone deacetylase 8 [3]; more than 35 µM in the assay on U-937; less than 35 µM in the assay with MOLT-4; less than 35 µM in the assay with Jurkat E6.1 [4].

As to `CCCCCCNC(=O)[C@H](CCC(=O)O)NC(=O)Cc1ccc(Cl)cc1Cl`, the IC50 was more than 10 µM on Histone deacetylase; not above 10 µM against Histone deacetylase 8 [3]; not above 35 µM with U-937; not above 35 µM in the assay with MOLT-4; not above 35 µM in the assay on Jurkat E6.1 [4].

For `N[C@H](Cc1cccc(Cl)c1)C(=O)N1CCN(C(=O)c2cc(F)ccc2F)CC1`, the IC50 in assay [5] was more than 30 µM.

On to `COc1ccc(Cn2ccc3ccc(C(=O)NO)cc32)cc1`, for which the GI50 – broadly, the concentration at which growth is held to half of that of the control – in the assay on Jurkat came out at 2.4 µM. Also, in assay [5], the IC50 worked out at 2.9 µM.

`CCCCCNC(=O)[C@H](CCC(=O)NO)NC(=O)Cc1ccccc1`: in the assay with Jurkat E6.1 [1], the IC50 is less than 50 µM.

Consider `CC(C)C[C@H](NC(=O)[C@@H](O)[C@H](N)Cc1ccccc1)C(=O)NCCCCCC(=O)Nc1ccc(NC(=O)CCCCCCC(=O)NO)cc1`, for which the inhibition in [6] turned out to be 90%.

In the case of `CC(C)C[C@H]1CC(=O)N[C@@H](C)C(=O)N[C@@H](CCCCCC(=O)NO)C(=O)N[C@@H](Cc2c[nH]c3ccccc23)C(=O)N1` (cyclo([Asu](NHOH)W[β3hL]A)), the IC50 on Histone deacetylase 8 [7] was 0.12 µM.

For `CCCCCCNC(=O)[C@H](CCC(=O)O)NC(=O)Cc1ccc(-c2ccccc2)cc1`, the IC50 on Histone deacetylase and at Histone deacetylase 8 [3] was more than 10 µM in each case.

`O=C(O)CC[C@H](NC(=O)Cc1ccc(Br)cc1)C(=O)NCc1ccc(Cl)c(Cl)c1`: the concentration for half-maximal inhibition (IC50) was more than 10 µM on Histone deacetylase; not above 10 µM at Histone deacetylase 8 [3]; more than 35 µM with U-937; less than 35 µM with MOLT-4; less than 35 µM in the assay with Jurkat E6.1 [4].

Consider `O=C(O)CC[C@H](NC(=O)Cc1ccc(Br)cc1)C(=O)NCc1ccc(Cl)cc1`, for which the IC50 is more than 10 µM against Histone deacetylase; not above 10 µM against Histone deacetylase 8 [3]; more than 35 µM in the assay with U-937; less than 35 µM in the assay on MOLT-4; less than 35 µM in the assay on Jurkat E6.1 [4].

For `COc1ccc(/C=C/C(=O)NO)c(-c2ccc(-c3ccccc3)cc2)c1`, the IC50 in [5] was more than 20 µM.

Turning to `CCCCCCNC(=O)[C@H](CCC(=O)NO)NC(=O)Cc1ccc(Br)cc1`, the IC50 with Jurkat E6.1 [1] was less than 50 µM.

As to `O=C1CN[C@H](Cc2cc3ccccc3[nH]2)C(=O)N1`, the IC50 at Histone deacetylase 8 [2] stood at 0.0511 µM.

For the molecule `N[C@H](Cc1ccc(Cl)cc1Cl)C(=O)N1Cc2ccccc2C1`, the IC50 in [5] was more than 30 µM.

For `CCCCCNC(=O)[C@H](CCC(=O)NO)NC(=O)Cc1ccc(Cl)cc1`, in the assay on Jurkat E6.1 [1], the IC50 is less than 50 µM.

With `O=C(O)CC[C@H](NC(=O)Cc1ccc(Br)cc1)C(=O)NCc1ccccc1`, the IC50 was more than 10 µM against Histone deacetylase; not above 10 µM at Histone deacetylase 8 [3]; more than 35 µM with U-937; not above 35 µM in the assay on MOLT-4; not above 35 µM in the assay on Jurkat E6.1 [4].

On to `CCCCCNC(=O)[C@H](CCC(=O)NO)NC(=O)Cc1ccccc1Br`, for which, in the assay with Jurkat E6.1 [1], the IC50 was more than 50 µM.

Take `O=C(NO)c1cccc(-c2nc(CSc3ccccc3)no2)c1`: the IC50 at Histone deacetylase 8 [7] was found to be 0.12 µM.

In the case of `CCCCCCNC(=O)[C@H](CCC(=O)NO)NC(=O)Cc1ccccc1`, the half-inhibitory concentration (IC50) in the assay with Jurkat E6.1 [1] is less than 50 µM.

For `O=C(NO)c1cccc(-n2cc(CSc3ccccc3)nn2)c1`, the IC50 at Histone deacetylase 2 is more than 100 µM; in assay [5] it was 2.2 µM; against Histone deacetylase 1 it was more than 100 µM; at Histone deacetylase 4 it was more than 100 µM. Further, the GI50 in the assay on Jurkat is 24 µM.

Consider `CCCCCNC(=O)[C@H](CCC(=O)NO)NC(=O)Cc1ccc(Cl)cc1Cl`, for which, in the assay with Jurkat E6.1 [1], the IC50 is less than 50 µM.

Turning to `O=C1CN[C@@H](Cc2ccccc2)C(=O)N1`, on Histone deacetylase 8 [2], the IC50 is 0.0674 µM.

Take `O=C(O)CC[C@H](NC(=O)Cc1ccc(Br)cc1)C(=O)NCc1ccccc1Cl`: the IC50 against Histone deacetylase was more than 10 µM; against Histone deacetylase 8 [3], not above 10 µM; in the assay with U-937 it was more than 35 µM; in the assay on MOLT-4, less than 35 µM; with Jurkat E6.1 [4], more than 35 µM.

For the molecule `O=C(O)CC[C@H](NC(=O)Cc1ccc(Cl)cc1Cl)C(=O)NCc1ccccc1`, the IC50 against Histone deacetylase was more than 10 µM; at Histone deacetylase 8 [3], not above 10 µM; in the assay with U-937, not above 35 µM; with MOLT-4 it was not above 35 µM; in the assay on Jurkat E6.1 [4], not above 35 µM.

On to `O=C1CN[C@H](Cc2ccccc2)C(=O)N1`, for which the IC50 at Histone deacetylase 8 [2] came to 0.0215 µM.

`CC(C)C[C@H](NC(=O)[C@@H](O)[C@H](N)Cc1ccccc1)C(=O)NCCOCCOCCNC(=O)c1cccc(C(=O)NO)c1`: in assay [6], the inhibition was found to be 64%.

On to `CCCCCCNC(=O)[C@H](CCC(=O)O)NC(=O)Cc1ccc(Br)cc1`, for which the IC50 on Histone deacetylase was more than 10 µM; against Histone deacetylase 8 [3], not above 10 µM; with U-937 it was more than 35 µM; in the assay with MOLT-4 it was not above 35 µM; in the assay with Jurkat E6.1 [4] it was not above 35 µM.

In the case of `CCCCCCNC(=O)[C@H](CCC(=O)O)NC(=O)Cc1ccc(Cl)cc1`, the IC50 on Histone deacetylase was more than 10 µM; against Histone deacetylase 8 [3], not above 10 µM; in the assay with U-937, not above 35 µM; in the assay on MOLT-4, not above 35 µM; with Jurkat E6.1 [4], not above 35 µM.
